Results reported in patent publication US11555055B2, “Peptide inhibitors of insulin-degrading enzyme” (The Regents of the University of California, priority 2017, dated 2023).
Where a SMILES comes first, the peptide text is derived from it. Bridges are numbered along the chain shown (N, C = ends).

Tests used:
[1] = test system: primary murine skin fibroblasts; experiment: Hydroxyproline secreted into the medium (collagen production and secretion); format: cell-based, mouse; settings: P12-3A 100 μM
Description: (§1) FIG. 4A-F. Effects of P12-3A on cultured skin cells. A, Insulin concentrations as a function of time in logarithmically growing primary murine skin fibroblasts in the absence or presence of P12-3A (100 μM). […] Data are mean±SEM of 4 independent replications. *P<0.05, **P<0.01. B, Proliferation of cells in the absence or presence of P12-3A (100 μM). […] C,D,E, P12-3A (100 μM) potentiates insulin-induced collagen production in skin fibroblasts. Collagen production was assessed by COL1A1 mRNA levels (C), levels of hydroxyproline secreted into the medium (D), and cell-associated mature alpha-1 type I collagen levels detected by Western blotting (E). […] Migration of HaCaT cells 48 h after induction of a scratch wound in the presence of the indicated quantities of insulin and/or P12-3A (100 μM). […]
(§2) Insulin promotes wound healing and overall skin health by affecting a number of processes, including cell proliferation (2,3), cell migration (5,6), and the production and secretion of ECM components, particularly type I collagen (7-13). We therefore assessed the ability of P12-3A to influence these processes in cultured skin fibroblasts and keratinocytes. To that end, primary mouse skin fibroblasts were grown for 4 d in multiple concentrations of insulin in the presence or absence of P12-3A, and insulin concentration over time was monitored by ELISA. […]

[2] = test system: primary murine skin fibroblasts; experiment: Western blotting of cell-associated mature alpha-1 type I collagen; format: cell-based, mouse; settings: P12-3A 100 μM
Description: as §1, §2

## CC(C)C[C@H](NC(=O)[C@H](CO)NC(=O)[C@@H](N)CCC(N)=O)C(=O)N1CCC[C@H]1C(=O)N[C@@H](Cc1c[nH]c2ccccc12)C(=O)N[C@H]1CSSC[C@@H](C(=O)N[C@H](C(=O)N[C@H](C(N)=O)[C@@H](C)O)C(C)C)NC(=O)[C@H](Cc2c[nH]cn2)NC(=O)[C@@H]2CCCN2C(=O)[C@H](Cc2ccc(O)cc2)NC1=O [Peptide P12-3A] (H-QSLPWCYPHCVT-NH2; disulfide 6-10 (inferred))
[1]
  hydroxyproline levels secreted into the medium: ~4.6 times that secreted by untreated cells
[2]
  mature, cell-associated collagen levels: increased
